Active and inactive are the calls of the source. No cut-off for these calls is given here.
Columns and labels:
Rattus norvegicus [1] = assay: Antiallodynic activity in ip dosed rat assessed as protection against spinal nerve ligation-induced neuropathic pain; format: functional
Mus musculus [2] = assay: Antiepileptic activity in ip dosed CF1 mouse assessed as inhibition of maximal electroshock-induced seizures; format: functional
Rattus norvegicus [3] = species on record: Rattus norvegicus; assay: Ratio of ED50 for antiallodynic activity in rat assessed as protection against spinal nerve ligation-induced neuropathic pain to ED50 for antiepileptic activity in rat by maximal electroshock-induced seizures assay; format: functional
Rattus norvegicus [4] = assay: Antiallodynic activity in rat assessed as protection against spinal nerve ligation-induced neuropathic pain at 80 mg/kg, ip after 240 mins; format: functional, organism-based; parameters: dose 80 mg/kg
Mus musculus [5] = assay: Antiepileptic activity in CF1 mouse assessed as inhibition of maximal electroshock-induced seizures at 30 mg/kg, ip after 0.5 hrs; format: functional, organism-based; parameters: dose 30 mg/kg
Mus musculus [6] = assay: Antiepileptic activity in CF1 mouse assessed as inhibition of maximal electroshock-induced seizures at 100 mg/kg, ip after 0.5 hrs; format: functional, organism-based; parameters: dose 100 mg/kg
Mus musculus [7] = assay: Antiepileptic activity in CF1 mouse assessed as inhibition of maximal electroshock-induced seizures at 300 mg/kg, ip after 0.5 hrs; format: functional, organism-based; parameters: dose 300 mg/kg
Mus musculus [8] = assay: Antiepileptic activity in CF1 mouse assessed as inhibition of maximal electroshock-induced seizures at 30 mg/kg, ip after 4 hrs; format: functional, organism-based; parameters: dose 30 mg/kg
Mus musculus [9] = assay: Antiepileptic activity in CF1 mouse assessed as inhibition of maximal electroshock-induced seizures at 100 mg/kg, ip after 4 hrs; format: functional, organism-based; parameters: dose 100 mg/kg
Mus musculus [10] = assay: Antiepileptic activity in CF1 mouse assessed as inhibition of maximal electroshock-induced seizures at 300 mg/kg, ip after 4 hrs; format: functional, organism-based; parameters: dose 300 mg/kg
Mus musculus [11] = assay: Antiepileptic activity in CF1 mouse assessed as inhibition of subcutaneous pentylenetetrazole-induced seizures at 30 mg/kg, ip after 0.5 hrs; format: functional, organism-based; parameters: dose 30 mg/kg
Mus musculus [12] = assay: Antiepileptic activity in CF1 mouse assessed as inhibition of subcutaneous pentylenetetrazole-induced seizures at 100 mg/kg, ip after 0.5 hrs; format: functional, organism-based; parameters: dose 100 mg/kg
Mus musculus [13] = assay: Antiepileptic activity in CF1 mouse assessed as inhibition of subcutaneous pentylenetetrazole-induced seizures at 300 mg/kg, ip after 0.5 hrs; format: functional, organism-based; parameters: dose 300 mg/kg
Mus musculus [14] = assay: Antiepileptic activity in CF1 mouse assessed as inhibition of subcutaneous pentylenetetrazole-induced seizures at 30 mg/kg, ip after 4 hrs; format: functional, organism-based; parameters: dose 30 mg/kg
Mus musculus [15] = assay: Antiepileptic activity in CF1 mouse assessed as inhibition of subcutaneous pentylenetetrazole-induced seizures at 100 mg/kg, ip after 4 hrs; format: functional, organism-based; parameters: dose 100 mg/kg
Mus musculus [16] = assay: Antiepileptic activity in CF1 mouse assessed as inhibition of subcutaneous pentylenetetrazole-induced seizures at 300 mg/kg, ip after 4 hrs; format: functional, organism-based; parameters: dose 300 mg/kg
Mus musculus [17] = assay: Neurotoxicity in CF1 mouse assessed as protection against motor impairment at 30 mg/kg, ip after 0.5 hrs by rotarod test; format: functional, organism-based; parameters: dose 30 mg/kg
Mus musculus [18] = assay: Neurotoxicity in CF1 mouse assessed as protection against motor impairment at 100 mg/kg, ip after 0.5 hrs by rotarod test; format: functional, organism-based; parameters: dose 100 mg/kg
Mus musculus [19] = assay: Neurotoxicity in CF1 mouse assessed as protection against motor impairment at 30 mg/kg, ip after 4 hrs by rotarod test; format: functional, organism-based; parameters: dose 30 mg/kg
Mus musculus [20] = assay: Neurotoxicity in CF1 mouse assessed as protection against motor impairment at 100 mg/kg, ip after 4 hrs by rotarod test; format: functional, organism-based; parameters: dose 100 mg/kg
Mus musculus [21] = assay: Neurotoxicity in CF1 mouse assessed as protection against motor impairment at 300 mg/kg, ip after 4 hrs by rotarod test; format: functional, organism-based; parameters: dose 300 mg/kg
Rattus norvegicus [22] = assay: Anticonvulsant activity in albino Sprague-Dawley rat assessed as protection against pilocarpine-induced seizure at 200 mg/kg, ip; format: functional, organism-based; parameters: dose 200 mg/kg
Rattus norvegicus [23] = assay: Anticonvulsant activity in ip dosed albino Sprague-Dawley rat assessed as protection against pilocarpine-induced seizure; format: functional
Mus musculus [24] = assay: Neurotoxicity in CF1 mouse assessed as protection against motor impairment at 300 mg/kg, ip after 0.5 hrs by rotarod test; format: functional, organism-based; parameters: dose 300 mg/kg
Rattus norvegicus [25] = assay: Antiallodynic activity in rat assessed as protection against spinal nerve ligation-induced neuropathic pain at 80 mg/kg, ip after 30 mins; format: functional, organism-based; parameters: dose 80 mg/kg
Rattus norvegicus [26] = assay: Antiallodynic activity in rat assessed as protection against spinal nerve ligation-induced neuropathic pain at 80 mg/kg, ip after 60 mins; format: functional, organism-based; parameters: dose 80 mg/kg
Rattus norvegicus [27] = assay: Antiallodynic activity in rat assessed as protection against spinal nerve ligation-induced neuropathic pain at 80 mg/kg, ip after 120 mins; format: functional, organism-based; parameters: dose 80 mg/kg
Rattus norvegicus [28] = assay: Antiallodynic activity in rat assessed as protection against spinal nerve ligation-induced neuropathic pain at 80 mg/kg, ip after 180 mins; format: functional, organism-based; parameters: dose 80 mg/kg

For CCC(C)C(CC)C(N)=O (stereo not drawn) [VALNOCTAMIDE], the ED50 (Rattus norvegicus [1]) was 52 mg/kg, the ED50 (Mus musculus [2]) was 29 mg/kg and the ratio (Rattus norvegicus [3]) was 0.56.

For CCC(C(N)=O)C(C)(C)C (stereo not drawn), the Activity (Rattus norvegicus [4]) was “inactive”, the Activity (Mus musculus [5]) was “inactive” and the Activity (Mus musculus [6]) was “inactive”. The Activity (Mus musculus [7]) was “inactive”, the Activity (Mus musculus [8]) was “inactive” and the Activity (Mus musculus [9]) was “inactive”. The Activity (Mus musculus [10]) was “Active”, the Activity (Mus musculus [11]) was “inactive” and the Activity (Mus musculus [12]) was “inactive”. The Activity (Mus musculus [13]) was “Active”, the Activity (Mus musculus [14]) was “inactive” and the Activity (Mus musculus [15]) was “inactive”. For the same compound, the Activity (Mus musculus [16]) was “inactive”, the Activity (Mus musculus [17]) was “inactive” and the Activity (Mus musculus [18]) was “inactive”. The Activity (Mus musculus [19]) was “inactive”, the Activity (Mus musculus [20]) was “inactive” and the Activity (Mus musculus [21]) was “inactive”. For the same compound, the Activity (Rattus norvegicus [22]) was “Active”, the ED50 (Rattus norvegicus [23]) was 257 mg/kg and the ED97 (Rattus norvegicus [23]) was 451 mg/kg.

For CCCC(C(N)=O)C(C)C (stereo not drawn), the ED50 (Rattus norvegicus [1]) was 42 mg/kg, the ED50 (Mus musculus [2]) was 22 mg/kg and the ratio (Rattus norvegicus [3]) was 0.52.

CCC(C)C(C(N)=O)C(C)C (stereo not drawn) was tested, and the Activity (Mus musculus [5]) was “inactive”, the Activity (Mus musculus [6]) was “Active” and the Activity (Mus musculus [7]) was “Active”. The Activity (Mus musculus [8]) was “inactive”, the Activity (Mus musculus [9]) was “inactive” and the Activity (Mus musculus [10]) was “inactive”. For the same compound, the Activity (Mus musculus [11]) was “inactive”, the Activity (Mus musculus [12]) was “Active” and the Activity (Mus musculus [13]) was “Active”. The Activity (Mus musculus [14]) was “inactive”, the Activity (Mus musculus [15]) was “inactive” and the Activity (Mus musculus [16]) was “inactive”. For the same compound, the Activity (Mus musculus [17]) was “inactive”, the Activity (Mus musculus [18]) was “Active” and the Activity (Mus musculus [24]) was “Active”. For the same compound, the Activity (Mus musculus [19]) was “inactive”, the Activity (Mus musculus [20]) was “inactive” and the ED50 (Rattus norvegicus [1]) was 50 mg/kg. For the same compound, the ED50 (Mus musculus [2]) was “inactive”.

CCC(C)C(N)=O (stereo not drawn) was tested, and the Activity (Mus musculus [5]) was “inactive”, the Activity (Mus musculus [6]) was “inactive” and the Activity (Mus musculus [7]) was “inactive”. For the same compound, the Activity (Mus musculus [8]) was “inactive”, the Activity (Mus musculus [9]) was “inactive” and the Activity (Mus musculus [10]) was “inactive”. The Activity (Mus musculus [11]) was “inactive”, the Activity (Mus musculus [12]) was “inactive” and the Activity (Mus musculus [13]) was “inactive”. For the same compound, the Activity (Mus musculus [14]) was “inactive”, the Activity (Mus musculus [15]) was “inactive” and the Activity (Mus musculus [16]) was “inactive”. The Activity (Mus musculus [17]) was “inactive”, the Activity (Mus musculus [18]) was “inactive” and the Activity (Mus musculus [24]) was “inactive”. For the same compound, the Activity (Mus musculus [19]) was “inactive”, the Activity (Mus musculus [20]) was “inactive” and the Activity (Mus musculus [21]) was “inactive”. For the same compound, the Activity (Rattus norvegicus [25]) was “inactive”, the Activity (Rattus norvegicus [26]) was “inactive” and the Activity (Rattus norvegicus [27]) was “inactive”.

In the case of CNC(=O)CC(C)(C)C, the Activity (Rattus norvegicus [28]) is reported as “inactive”, the Activity (Rattus norvegicus [4]) is reported as “inactive” and the Activity (Mus musculus [5]) is reported as “inactive”. The Activity (Mus musculus [6]) was “inactive”, the Activity (Mus musculus [7]) was “inactive” and the Activity (Mus musculus [8]) was “inactive”. For the same compound, the Activity (Mus musculus [9]) was “inactive”, the Activity (Mus musculus [10]) was “inactive” and the Activity (Mus musculus [11]) was “inactive”. For the same compound, the Activity (Mus musculus [12]) was “inactive”, the Activity (Mus musculus [13]) was “inactive” and the Activity (Mus musculus [14]) was “inactive”. The Activity (Mus musculus [15]) was “inactive”, the Activity (Mus musculus [16]) was “inactive” and the Activity (Mus musculus [17]) was “inactive”. For the same compound, the Activity (Mus musculus [18]) was “inactive”, the Activity (Mus musculus [24]) was “inactive” and the Activity (Mus musculus [19]) was “inactive”. For the same compound, the Activity (Mus musculus [20]) was “inactive”, the Activity (Mus musculus [21]) was “inactive” and the Activity (Rattus norvegicus [25]) was “inactive”. For the same compound, the Activity (Rattus norvegicus [26]) was “inactive” and the Activity (Rattus norvegicus [27]) was “inactive”.

Compound CC(C)C(C(N)=O)C(C)C has an ED50 (Rattus norvegicus [1]) of 58 mg/kg, an ED50 (Mus musculus [2]) of 51 mg/kg and a ratio (Rattus norvegicus [3]) of 0.88.

Reference: ChEMBL document CHEMBL1153701, “Synthesis and evaluation of antiallodynic and anticonvulsant activity of novel amide and urea derivatives of valproic acid analogues” (2009)
